Assay type in all cases: cell-based
Test [1] deals with T1, CG*-CG* tandem K2P2.1 (TREK-1) (Mus musculus, UniProt P97438, S146C).
T1 construct: expressed in transfected cells; host or cells: Xenopus laevis oocytes injected with mRNA
T1 sequence (P97438 1-411 isoform P97438-2 S131C) 1: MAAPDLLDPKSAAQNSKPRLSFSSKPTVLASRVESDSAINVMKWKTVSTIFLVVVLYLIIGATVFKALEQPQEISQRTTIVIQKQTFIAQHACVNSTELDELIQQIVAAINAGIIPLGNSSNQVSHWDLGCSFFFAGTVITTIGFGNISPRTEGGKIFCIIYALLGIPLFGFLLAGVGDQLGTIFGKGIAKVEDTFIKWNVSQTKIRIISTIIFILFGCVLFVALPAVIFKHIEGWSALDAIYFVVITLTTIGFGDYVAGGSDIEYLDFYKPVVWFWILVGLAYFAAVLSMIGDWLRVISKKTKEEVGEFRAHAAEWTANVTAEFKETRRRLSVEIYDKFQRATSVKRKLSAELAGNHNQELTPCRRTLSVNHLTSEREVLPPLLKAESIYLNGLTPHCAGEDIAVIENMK
T1 sequence (P97438 1-411 isoform P97438-2 S131C) 2: T1 sequence (P97438 1-411 isoform P97438-2 S131C) 1
The test is described as follows: Single channel recordings from HEK293 cells in cell attached mode. To be noted: 20 μM; for Change of open probability (Po activator/Po control): cell-attached, -100 mV. An excerpt: (§1) Mouse K2P2.1 (TREK-1) (Genbank accession number: NP_034737.2), mouse K2P10.1 (TREK-2) (NM_001316665.1), mouse K2P4.1 (TRAAK) (NM_008431.3), human K2P4.1 (TRAAK) (NM_033310.2) and mouse K2P18.1(TRESK) (NM_207261.3) were used for this study. Point mutations were introduced by site-directed mutagenesis using custom primers and confirmed by sequencing before use. For studies using Xenopus oocytes, K2P channels were subcloned into a previously reported pGEMHE/pMO vector (46). For expression in HEK293 cells, mouse K2P2.1 (TREK-1) and mutants were expressed from a previously described pIRES2-EGFP vector in HEK293 cells (46,47). K2P2.1 (TREK-1) tandems were constructed by connecting the open reading frames for the individual subunits with a linker encoding the […] (SEQ ID NO: 19) sequence. Tandems used for HEK293 cells included an N-terminal HA tag ([…] (SEQ ID NO: 20)) on the first subunit.
(§2) Single-channel recordings of K2P2.1 (TREK-1) tandem mutants were recorded in cell-attached mode using HEK293 cells 48 h after transfection. Acquisition and analysis was preformed using pCLAMP9 and an Axopatch 200B amplifier. Pipettes were pulled using a laser-based micropipette puller (P-2000, Sutter Instruments). Electrode resistance after filling with pipette internal solution ranged from 6 to 10 MΩ. Pipette solution contained the following: 150 mM KCl, 3.6 mM CaCl2, 10 mM HEPES (pH 7.4 with KOH). The bath solution was identical to the pipette solution. Po was measured from 30-120 s recordings of K2P2.1 (TREK-1) activity holding at −100 mV. Channel conductance of K2P2.1 (TREK-1) tandems were measured from 30-60s recordings at either −100 mV or +50 mV holding potential. Recordings of CAT335 activated channels were obtained by bath applying 20 μM CAT335 for 2 min to the coverslip before transferring to the recording chamber. This was necessary as application of CAT335 via perfusion or through the pipette solution activated slowly (>5 min), making it difficult to measure Po from fully activated channels. BL-1249 was applied at 20 μM in the bath solution via perfusion at 3 mL min^−1 (2-4 min). Data were analyzed using Clampfit 11 and GraphPad Prism 9.

The target of test [2] is T2, CG*-WT tandem K2P2.1 (TREK-1) (Mus musculus, UniProt P97438, S146C).
T2 construct: expressed in transfected cells; host or cells: Xenopus laevis oocytes injected with mRNA
T2 sequence (P97438 1-411 isoform P97438-2 S131C): T1 sequence (P97438 1-411 isoform P97438-2 S131C) 1
T2 sequence (P97438 1-411 isoform P97438-2): T1 sequence (P97438 1-411 isoform P97438-2 S131C) 1 with C131S
The description is as above. To be noted: 20 μM; for Change of open probability (Po activator/Po control): cell-attached, -100 mV.
Excerpt: as §1, §2

Test [3] has as its target T3, WT-WT tandem K2P2.1 (TREK-1) (Mus musculus, UniProt P97438).
T3 construct: expressed in transfected cells; host or cells: Xenopus laevis oocytes injected with mRNA
T3 sequence (P97438 1-411 isoform P97438-2) 1: T1 sequence (P97438 1-411 isoform P97438-2 S131C) 1 with C131S
T3 sequence (P97438 1-411 isoform P97438-2) 2: T1 sequence (P97438 1-411 isoform P97438-2 S131C) 1 with C131S
Described as above. To be noted: 20 μM; for Change of open probability (Po activator/Po control): cell-attached, -100 mV.
Excerpt: as §1, §2

The target of the next test is T4, TREK-1^CG* (Mus musculus, UniProt P97438, S146C).
T4 construct: expressed in transfected cells; host or cells: HEK293 (pIRES2-EGFP vector)
T4 sequence (P97438 1-411 isoform P97438-2 S131C): T1 sequence (P97438 1-411 isoform P97438-2 S131C) 1
Nature of the test: Whole-cell patch clamp in transfected HEK293 cells. To be noted: 20 μM; for Fold-activation (I activator/I control): whole-cell currents.
Excerpt: as §1
50% confluent cells were co-transfected (in 35-mm diameter wells) with 10-100 ng of the K2P2.1 plasmid and 400 ng of an eGFP plasmid (for visualization) using LipofectAMINE 2000 (Invitrogen) for 24 h, after which the cells were either plated onto coverslips or the media exchanged with fresh media. Cells were plated onto Matrigel coated coverslips (BD Biosciences) 1-2 hours before experiments.
Whole-cell patch-clamp experiments with K2P2.1(TREK-1) and mutants were carried out 24-48 h after transfection. Acquisition and analysis for voltage-clamp experiments were performed using pCLAMP10 and an Axopatch 200B amplifier (Molecular Devices). Current-clamp experiments were acquired using an […] amplifier (Molecular Devices). Pipettes were pulled using a Flaming/Brown micropipette puller (P-97, Sutter Instruments) and flame-polished using a MF-830 microforge (Narishige). Electrode resistance after filling with pipette internal solution ranged from 2 to 5 MΩ. Currents were low-pass filtered at 2 kHz and sampled at 10 kHz. Pipette solution contained the following: 145 mM KCl, 3 mM MgCl2, 5 mM EGTA and 20 mM HEPES (pH 7.2 with KOH). Bath solution contained the following: 145 mM NaCl, 5 mM KCl, 1 mM CaCl2, 3 mM MgCl2 and 20 mM HEPES (pH 7.4 with NaOH). K2P2.1 currents were elicited by a 1 s ramp from −100 to +50 mV from a −80 mV holding potential. Current-clamp recordings were taken with no holding current (I=0). Only K2P2.1(TREK-1)^CG* whole-cell patches with basal currents between […] at 0 mV were used Criteria for A286F K2P2.1(TREK-1)^CG*. ML335 or CAT335 were applied at 20 μM in bath solution and were perfused at 3 ml min^−1 until potentiation stabilized (1-3 min). Data were analyzed using Clampfit 11 and GraphPad Prism 9.

Where a chain is given by its changes, count along the chain named.

Turning to `c1ccc(-c2nn[nH]n2)c(Nc2cccc3c2CCCC3)c1` [BL-1249, reference compound], the “Change of open probability (Po activator/Po control)” value in test [1], in test [2] and in test [3] was “large increases in Po” in each case.
Turning to `O=C(NCc1ccc(Cl)cc1Cl)c1ccc(N2C(=O)C=CC2=O)cc1` [CAT335], the “Reversibility of activation on washout” value at TREK-1^CG* is “irreversible”. The “Fold-activation (I activator/I control)” value at TREK-1^CG* worked out at 8.5 ± 1.5 fold. Moreover, the “Effect on single channel conductance” value in test [1] (-100 mV and +50 mV) is reported as “minimal to no effect on single channel conductance”; in test [2] (-100 mV and +50 mV), “minimal to no effect on single channel conductance”; in test [3] (-100 mV and +50 mV) it was “minimal to no effect on single channel conductance”. In addition, the entries for the “Change of open probability (Po activator/Po control)” value in test [1], in test [2] and in test [3] were 7.8, 6.3 and “no impact on open probability”, respectively.
Take `CS(=O)(=O)Nc1ccc(C(=O)NCc2ccc(Cl)cc2Cl)cc1` [ML335, reference compound]: the “Fold-activation (I activator/I control)” value at TREK-1^CG* came to 3.7 ± 0.4 fold.
